Assay results as given in patent US20260248926A1, “BIFUNCTIONAL COMPOUND AND PHARMACEUTICAL COMPOSITION COMPRISING THE BIFUNCTIONAL COMPOUND, AND METHOD FOR TREATING ANDROGEN RECEPTOR RELATED DISEASE BY USING THE SAME” (ANHORN MEDICINES CO., LTD., priority 2022, published 2026).

The molecules below were run against T1, androgen receptor (Homo sapiens, UniProt P10275, T878A) (assay: Androgen receptor degradation assay using Western blot analysis in LNCaP.FGC cells). Settings: concentration needed for 50% AR degradation, 24 hr treatment, read-out: AR DC50.
T1 construct: Several compounds were selected and serial diluted (10×) with RPMI medium for treating LNCaP.FGC cells; host or cells: LNCaP.FGC
Type: cell-based
Method: The internal loading control GAPDH was detected using a mouse monoclonal antibody (1:5000) (GTX627408, GeneTex International Corp., HsinChu City, Taiwan R.O.C.) and a goat anti-mouse HRP-conjugated secondary antibody (1:5000 dilution) (C04001, Croyez Bioscience Co., Ltd., Taipei City, Taiwan R.O.C.).
Several compounds were selected and serial diluted (10×) with RPMI medium for treating LNCaP.FGC cells. A calibration curve was determined by the serial diluted samples for each compound, and the concentration needed for 50% AR degradation (AR DC50) for each compound was calculated.

T1 sequence (P10275 whole entry T878A): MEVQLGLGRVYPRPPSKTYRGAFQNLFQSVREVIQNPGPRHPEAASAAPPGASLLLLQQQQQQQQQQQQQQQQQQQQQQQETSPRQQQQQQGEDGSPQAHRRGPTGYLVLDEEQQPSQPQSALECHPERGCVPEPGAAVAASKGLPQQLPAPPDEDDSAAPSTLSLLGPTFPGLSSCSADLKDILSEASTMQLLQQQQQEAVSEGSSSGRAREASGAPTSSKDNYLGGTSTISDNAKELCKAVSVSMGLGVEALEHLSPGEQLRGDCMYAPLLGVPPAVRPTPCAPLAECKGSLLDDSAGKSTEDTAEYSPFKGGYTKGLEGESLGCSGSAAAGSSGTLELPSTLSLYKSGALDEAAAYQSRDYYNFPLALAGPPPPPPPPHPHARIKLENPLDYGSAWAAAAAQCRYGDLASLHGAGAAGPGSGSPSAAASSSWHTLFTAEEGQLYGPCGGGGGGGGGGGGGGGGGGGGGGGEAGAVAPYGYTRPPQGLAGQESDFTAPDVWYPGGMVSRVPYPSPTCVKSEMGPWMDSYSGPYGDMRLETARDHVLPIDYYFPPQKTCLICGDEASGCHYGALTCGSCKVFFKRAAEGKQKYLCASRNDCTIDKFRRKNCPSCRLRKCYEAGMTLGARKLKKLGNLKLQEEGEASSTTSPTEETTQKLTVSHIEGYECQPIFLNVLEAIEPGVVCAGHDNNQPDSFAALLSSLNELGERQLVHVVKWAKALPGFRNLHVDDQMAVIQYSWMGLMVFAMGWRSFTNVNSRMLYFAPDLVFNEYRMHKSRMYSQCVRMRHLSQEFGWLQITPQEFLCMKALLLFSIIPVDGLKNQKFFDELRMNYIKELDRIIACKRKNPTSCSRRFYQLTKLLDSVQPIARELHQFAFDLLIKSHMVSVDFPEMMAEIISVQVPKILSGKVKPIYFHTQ
T1 sequence (Q96SW2 whole entry partner): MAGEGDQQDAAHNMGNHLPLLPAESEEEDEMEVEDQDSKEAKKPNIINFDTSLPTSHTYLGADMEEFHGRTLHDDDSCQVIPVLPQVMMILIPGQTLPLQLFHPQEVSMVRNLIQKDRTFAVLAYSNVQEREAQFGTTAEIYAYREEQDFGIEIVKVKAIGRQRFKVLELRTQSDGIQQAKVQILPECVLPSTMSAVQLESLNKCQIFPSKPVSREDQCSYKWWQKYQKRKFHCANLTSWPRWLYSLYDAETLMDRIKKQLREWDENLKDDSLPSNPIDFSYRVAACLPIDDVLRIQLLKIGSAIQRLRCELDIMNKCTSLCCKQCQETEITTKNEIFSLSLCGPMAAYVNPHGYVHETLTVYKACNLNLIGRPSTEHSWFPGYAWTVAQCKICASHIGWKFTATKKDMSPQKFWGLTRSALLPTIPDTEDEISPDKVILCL

| DC50 | Structure (SMILES) |
| --- | --- |
| 10 to 25 nM | Cn1c2c(c3ccc(C4CCN(CC5CCN(c6ccc(C(=O)N[C@H]7CC[C@H](Oc8ccc(C#N)c(Cl)c8)CC7)nn6)CC5)CC4)cc31)C(=O)N(C1CCC(=O)NC1=O)C2=O (stereo partly shown) [Compound 29] |
| < 10 nM | Cn1c2c(c3ccc(C4CCN(CC5CCN(c6ccc(C(=O)N[C@H]7CC[C@@H](Oc8ccc(C#N)c(Cl)c8)CC7)nn6)CC5)CC4)cc31)C(=O)N(C1CCC(=O)NC1=O)C2=O (stereo partly shown) [Compound 30] |
| 10 to 25 nM | Cn1c2c(c3ccc(N4CCN(CC5CCN(c6ccc(C(=O)N[C@H]7C(C)(C)[C@H](Oc8ccc(C#N)c(Cl)c8)C7(C)C)cn6)CC5)CC4)cc31)C(=O)N(C1CCC(=O)NC1=O)C2=O (stereo partly shown) [Compound 27] |
| > 100 nM | Cn1c2c(c3cc(N4CCN(CC5CCN(c6ccc(C(=O)N[C@H]7CC[C@H](Oc8ccc(C#N)c(Cl)c8)CC7)nn6)CC5)CC4)ccc31)C(=O)N(C1CCC(=O)NC1=O)C2=O (stereo partly shown) [Compound 41] |
| 10 to 25 nM | Cn1c2c(c3ccc(N4CCN(CC5CCN(c6ccc(C(=O)N[C@H]7CC[C@@H](Oc8ccc(C#N)c(Cl)c8)CC7)nn6)CC5)CC4)cc31)C(=O)N(C1CCC(=O)NC1=O)C2=O (stereo partly shown) [Compound 22] |
| 25 to 100 nM | Cn1c2c(c3cc(N4CCN(CC5CN(c6ccc(C(=O)N[C@H]7CC[C@H](Oc8ccc(C#N)c(Cl)c8)CC7)nn6)C5)CC4)ccc31)C(=O)N(C1CCC(=O)NC1=O)C2=O (stereo partly shown) [Compound 47] |
| 25 to 100 nM | Cn1c2c(c3cc(N4CCN(CC5CCN(c6ccc(C(=O)N[C@H]7CC[C@@H](Oc8ccc(C#N)c(Cl)c8)CC7)nn6)CC5)CC4)ccc31)C(=O)N(C1CCC(=O)NC1=O)C2=O (stereo partly shown) [Compound 42] |
| 10 to 25 nM | Cn1c2c(c3ccc(C4CCN(CC5CCN(c6ccc(C(=O)N[C@H]7CC[C@H](Oc8ccc(C#N)c(Cl)c8)CC7)nn6)C5)CC4)cc31)C(=O)N(C1CCC(=O)NC1=O)C2=O (stereo partly shown) [Compound 34] |
| < 10 nM | Cn1c2c(c3ccc(N4CCN(CC5CCN(c6ccc(C(=O)N[C@H]7CC[C@H](Oc8ccc(C#N)c(Cl)c8)CC7)nn6)CC5)CC4)cc31)C(=O)N(C1CCC(=O)NC1=O)C2=O (stereo partly shown) [Compound 21] |
| 25 to 100 nM | Cn1c2c(c3ccc(N4CCN(CC5CCN(c6ccc(C(=O)N[C@H]7C(C)(C)[C@@H](Oc8ccc(C#N)c(Cl)c8)C7(C)C)cn6)CC5)CC4)cc31)C(=O)N(C1CCC(=O)NC1=O)C2=O (stereo partly shown) [Compound 28] |
| < 10 nM | Cn1c2c(c3ccc(C4CCN(CC5CN(c6ccc(C(=O)N[C@H]7CC[C@H](Oc8ccc(C#N)c(Cl)c8)CC7)nn6)C5)CC4)cc31)C(=O)N(C1CCC(=O)NC1=O)C2=O (stereo partly shown) [Compound 2] |
| 10 to 25 nM | Cn1c2c(c3ccc(N4CCN(CC5CCN(c6ncc(C(=O)N[C@H]7CC[C@H](Oc8ccc(C#N)c(Cl)c8)CC7)cn6)CC5)CC4)cc31)C(=O)N(C1CCC(=O)NC1=O)C2=O (stereo partly shown) [Compound 35] |
| < 10 nM | Cn1c2c(c3ccc(N4CCN(CC5CN(c6ccc(C(=O)N[C@H]7CC[C@H](Oc8ccc(C#N)c(Cl)c8)CC7)nn6)C5)CC4)cc31)C(=O)N(C1CCC(=O)NC1=O)C2=O (stereo partly shown) [Compound 1] |

Same assay, conditions: read-out: AR DC50, concentration needed for 50% AR degradation, 24 hr treatment

| Structure (SMILES) | DC50 |
| --- | --- |
| CCn1c2c(c3ccc(N4CCN(CC5CCN(c6ccc(C(=O)N[C@H]7CC[C@H](Oc8ccc(C#N)c(Cl)c8)CC7)cn6)CC5)CC4)cc31)C(=O)N(C1CCC(=O)NC1=O)C2=O (stereo partly shown) [Compound 4] | 25 to 100 nM |
| CCn1c2c(c3ccc(C4CCN(CC5CCN(c6ccc(C(=O)N[C@H]7CC[C@H](Oc8ccc(C#N)c(Cl)c8)CC7)nn6)C5)CC4)cc31)C(=O)N(C1CCC(=O)NC1=O)C2=O (stereo partly shown) [Compound 18] | 10 to 25 nM |
| CCn1c2c(c3ccc(N4CCN(CC5CCN(c6ccc(C(=O)N[C@H]7C(C)(C)[C@@H](Oc8ccc(C#N)c(Cl)c8)C7(C)C)cn6)CC5)CC4)cc31)C(=O)N(C1CCC(=O)NC1=O)C2=O (stereo partly shown) [Compound 7] | 25 to 100 nM |
| CCn1c2c(c3ccc(C4CCN(CC5CN(c6ccc(C(=O)N[C@H]7CC[C@H](Oc8ccc(C#N)c(Cl)c8)CC7)nn6)C5)CC4)cc31)C(=O)N(C1CCC(=O)NC1=O)C2=O (stereo partly shown) [Compound 10] | < 10 nM |
| CCn1c2c(c3ccc(N4CCN(CC5CCN(c6ccc(C(=O)N[C@H]7C(C)(C)[C@H](Oc8ccc(C#N)c(Cl)c8)C7(C)C)cn6)CC5)CC4)cc31)C(=O)N(C1CCC(=O)NC1=O)C2=O (stereo partly shown) [Compound 6] | 25 to 100 nM |
| CCn1c2c(c3ccc(N4CCN(CC5CCN(c6ccc(C(=O)N[C@H]7C(C)(C)[C@@H](Oc8ccc(C#N)c(Cl)c8)C7(C)C)nn6)CC5)CC4)cc31)C(=O)N(C1CCC(=O)NC1=O)C2=O (stereo partly shown) [Compound 9] | 25 to 100 nM |
| CCn1c2c(c3ccc(N4CCN(CC5CCN(c6ccc(C(=O)N[C@H]7C(C)(C)[C@H](Oc8ccc(C#N)c(Cl)c8)C7(C)C)nn6)CC5)CC4)cc31)C(=O)N(C1CCC(=O)NC1=O)C2=O (stereo partly shown) [Compound 8] | 25 to 100 nM |
| CCn1c2c(c3ccc(N4CCN(CC5CCN(c6ccc(C(=O)N[C@H]7CC[C@@H](Oc8ccc(C#N)c(Cl)c8)CC7)cn6)CC5)CC4)cc31)C(=O)N(C1CCC(=O)NC1=O)C2=O (stereo partly shown) [Compound 5] | 25 to 100 nM |
| CCn1c2c(c3ccc(N4CCN(CC5CCN(c6ncc(C(=O)N[C@H]7CC[C@@H](Oc8ccc(C#N)c(Cl)c8)CC7)cn6)CC5)CC4)cc31)C(=O)N(C1CCC(=O)NC1=O)C2=O (stereo partly shown) [Compound 26] | > 100 nM |
| CCn1c2c(c3ccc(N4CCC(CN5CCC(c6ccc(C(=O)N[C@H]7CC[C@H](Oc8ccc(C#N)c(Cl)c8)CC7)nn6)CC5)CC4)cc31)C(=O)N(C1CCC(=O)NC1=O)C2=O (stereo partly shown) [Compound 40] | 10 to 25 nM |
| CCn1c2c(c3ccc(N4CCN(CC5CCN(c6ccc(C(=O)N[C@H]7CC[C@H](Oc8ccc(C#N)c(Cl)c8)CC7)nn6)CC5)CC4)cc31)C(=O)N([C@H]1CCC(=O)NC1=O)C2=O [Compound 36] | 10 to 25 nM |
| CCn1c2c(c3ccc(C4=CCN(CC5CCN(c6ccc(C(=O)N[C@H]7CC[C@H](Oc8ccc(C#N)c(Cl)c8)CC7)nn6)CC5)CC4)cc31)C(=O)N(C1CCC(=O)NC1=O)C2=O (stereo partly shown) [Compound 48] | 10 to 25 nM |
| CCn1c2c(c3ccc(N4CCN(CC5CCN(c6ccc(C(=O)N[C@H]7CC[C@H](Oc8ccc(C#N)c(Cl)c8)CC7)nn6)C5)CC4)cc31)C(=O)N(C1CCC(=O)NC1=O)C2=O (stereo partly shown) [Compound 17] | 10 to 25 nM |
| CCn1c2c(c3ccc(N4CCN(CC5CCN(c6ccc(C(=O)N[C@H]7CC[C@H](Oc8ccc(C#N)c(Cl)c8)CC7)nn6)CC5)CC4)cc31)C(=O)N(C1CCC(=O)NC1=O)C2=O (stereo partly shown) [Compound 23] | 10 to 25 nM |
| CCn1c2c(c3ccc(N4CCN(CC5CN(c6ccc(C(=O)N[C@H]7CC[C@H](Oc8ccc(C#N)c(Cl)c8)CC7)nn6)C5)CC4)cc31)C(=O)N(C1CCC(=O)NC1=O)C2=O (stereo partly shown) [Compound 3] | < 10 nM |
| CCn1c2c(c3ccc(C4CCN(CC5CCN(c6ccc(C(=O)N[C@H]7CC[C@@H](Oc8ccc(C#N)c(Cl)c8)CC7)nn6)CC5)CC4)cc31)C(=O)N(C1CCC(=O)NC1=O)C2=O (stereo partly shown) [Compound 12] | 10 to 25 nM |
| CCn1c2c(c3ccc(N4CCN(CC5CCN(c6ncc(C(=O)N[C@H]7CC[C@H](Oc8ccc(C#N)c(Cl)c8)CC7)cn6)CC5)CC4)cc31)C(=O)N(C1CCC(=O)NC1=O)C2=O (stereo partly shown) [Compound 25] | 10 to 25 nM |
| CCn1c2c(c3ccc(N4CCN(CC5CCN(c6ccc(C(=O)N[C@H]7C(C)(C)[C@H](Oc8ccc(C#N)c(Cl)c8)C7(C)C)cc6)CC5)CC4)cc31)C(=O)N(C1CCC(=O)NC1=O)C2=O (stereo partly shown) [Compound 15] | 25 to 100 nM |
| CCn1c2c(c3ccc(N4CCN(CC5CCN(c6ccc(C(=O)N[C@H]7CC[C@@H](Oc8ccc(C#N)c(Cl)c8)CC7)nn6)CC5)CC4)cc31)C(=O)N([C@H]1CCC(=O)NC1=O)C2=O [Compound 39] | 10 to 25 nM |
| CCn1c2c(c3ccc(C4CCN(CC5CCN(c6ccc(C(=O)N[C@H]7C(C)(C)[C@H](Oc8ccc(C#N)c(Cl)c8)C7(C)C)cc6)CC5)CC4)cc31)C(=O)N(C1CCC(=O)NC1=O)C2=O (stereo partly shown) [Compound 24] | 25 to 100 nM |
| CCn1c2c(c3ccc(C4CCN(CC5CCN(c6ccc(C(=O)N[C@H]7CC[C@H](Oc8ccc(C#N)c(Cl)c8)CC7)nn6)CC5)CC4)cc31)C(=O)N(C1CCC(=O)NC1=O)C2=O (stereo partly shown) [Compound 11] | < 10 nM |
| CCn1c2c(c3ccc(N4CCC5(CC4)CN(CC4CCN(c6ccc(C(=O)N[C@H]7CC[C@H](Oc8ccc(C#N)c(Cl)c8)CC7)nn6)CC4)C5)cc31)C(=O)N(C1CCC(=O)NC1=O)C2=O (stereo partly shown) [Compound 51] | < 10 nM |
| CCn1c2c(c3ccc(N4CCN(CC5CCN(c6ccc(C(=O)N[C@H]7C(C)(C)[C@@H](Oc8ccc(C#N)c(Cl)c8)C7(C)C)cc6)CC5)CC4)cc31)C(=O)N(C1CCC(=O)NC1=O)C2=O (stereo partly shown) [Compound 16] | > 100 nM |
| CCn1c2c(c3ccc(N4CCN(CC5CCN(c6ccc(C(=O)N[C@H]7CC[C@@H](Oc8ccc(C#N)c(Cl)c8)CC7)nn6)CC5)CC4)cc31)C(=O)N(C1CCC(=O)NC1=O)C2=O (stereo partly shown) [Compound 33] | < 10 nM |
